Experimental data: PubChem BioAssay (NCI)
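1) Cells in 96-well plates. 2) Compound, 48 h, 5 concentrations. 3) Linear interpolation between surrounding doses. 4) Unreached endpoint = highest concentration. GI50 = concentration required for 50% inhibition of growth. TGI: total growth inhibition.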

Assays:
Assay in all cases: NCI anticancer screen, dose series, 48 h
HL-60(TB) leukemia = test system: HL-60(TB) leukemia
HT29 colon = test system: HT29 colon
LOX IMVI melanoma = test system: LOX IMVI melanoma
MALME-3M melanoma = test system: MALME-3M melanoma
MOLT-4 leukemia = test system: MOLT-4 leukemia
NCI-H226 lung = test system: NCI-H226 lung
NCI-H460 lung = test system: NCI-H460 lung
NCI/ADR-RES ovarian = test system: NCI/ADR-RES ovarian
SK-MEL-5 melanoma = test system: SK-MEL-5 melanoma
DMS 273 small cell lung = test system: DMS 273 small cell lung
KM20L2 colon = test system: KM20L2 colon

C[C@H]1C[C@H]2[C@@H]3CCC4=CC(=O)C=C[C@]4(C)C3=CC[C@]2(C)[C@@]1(O)C(=O)CO
TGI (HL-60(TB) leukemia): > 100 µM
TGI (HT29 colon): > 100 µM
TGI (LOX IMVI melanoma): > 100 µM
TGI (MALME-3M melanoma): > 100 µM
TGI (MOLT-4 leukemia): > 100 µM
TGI (NCI-H226 lung): > 100 µM
TGI (NCI-H460 lung): > 100 µM
TGI (NCI/ADR-RES ovarian): > 100 µM
TGI (SK-MEL-5 melanoma): > 100 µM

O=C(N/N=C(\C1=Nc2ccc(Cl)cc2NC1O)C(O)/C=C/c1ccccc1)c1ccncc1 (stereo not given)
TGI (DMS 273 small cell lung): > 100 µM
TGI (HL-60(TB) leukemia): > 100 µM
TGI (HT29 colon): > 100 µM
TGI (KM20L2 colon): > 100 µM
TGI (LOX IMVI melanoma): > 100 µM
TGI (MALME-3M melanoma): > 100 µM
TGI (MOLT-4 leukemia): > 100 µM
TGI (NCI-H226 lung): > 100 µM
TGI (NCI-H460 lung): > 100 µM
TGI (SK-MEL-5 melanoma): > 100 µM

CNC(=O)CCCNC(=O)CCCC(=O)OC
TGI (HL-60(TB) leukemia): > 100 µM
TGI (HT29 colon): > 100 µM
TGI (LOX IMVI melanoma): > 100 µM
TGI (MALME-3M melanoma): > 100 µM
TGI (MOLT-4 leukemia): > 100 µM
TGI (NCI-H226 lung): > 100 µM
TGI (NCI-H460 lung): > 100 µM
TGI (NCI/ADR-RES ovarian): > 100 µM
TGI (SK-MEL-5 melanoma): > 100 µM

COC(=O)CCC(NC(=S)N/N=C(\C)c1cnccn1)C(=O)OC (stereo not given)
TGI (HL-60(TB) leukemia): 38.6 µM
TGI (HT29 colon): > 100 µM
TGI (KM20L2 colon): > 100 µM
TGI (LOX IMVI melanoma): > 100 µM
TGI (MALME-3M melanoma): > 100 µM
TGI (MOLT-4 leukemia): 61 µM
TGI (NCI-H226 lung): > 100 µM
TGI (NCI-H460 lung): > 100 µM
TGI (SK-MEL-5 melanoma): > 100 µM

Oc1cccnc1/C=N/OCc1ccccc1
TGI (DMS 273 small cell lung): > 100 µM
TGI (HL-60(TB) leukemia): > 100 µM
TGI (HT29 colon): > 100 µM
TGI (KM20L2 colon): > 100 µM
TGI (LOX IMVI melanoma): > 100 µM
TGI (MALME-3M melanoma): > 100 µM
TGI (MOLT-4 leukemia): > 100 µM
TGI (NCI-H226 lung): > 100 µM
TGI (NCI-H460 lung): > 100 µM
TGI (SK-MEL-5 melanoma): > 100 µM

CC(=O)NCCCCN(CCCNC(C)=O)C(=O)OCc1ccccc1
TGI (HL-60(TB) leukemia): > 100 µM
TGI (HT29 colon): > 100 µM
TGI (LOX IMVI melanoma): > 100 µM
TGI (MALME-3M melanoma): > 100 µM
TGI (MOLT-4 leukemia): > 100 µM
TGI (NCI-H226 lung): > 100 µM
TGI (NCI-H460 lung): > 100 µM
TGI (NCI/ADR-RES ovarian): > 100 µM
TGI (SK-MEL-5 melanoma): > 100 µM

COC1=C2CC(C)CC(OC)C(OC(=O)CCCN)C(C)/C=C(\C)C(OC(N)=O)C(OC)/C=C\C=C(/C)C(=O)NC(=CC1=O)C2=O (stereo not given)
TGI (HL-60(TB) leukemia): 1.65 µM
TGI (HT29 colon): 13.2 µM
TGI (LOX IMVI melanoma): 11.4 µM
TGI (MALME-3M melanoma): 14.9 µM
TGI (MOLT-4 leukemia): 3.81 µM
TGI (NCI-H226 lung): 33.3 µM
TGI (NCI-H460 lung): 36.5 µM
TGI (NCI/ADR-RES ovarian): 43.7 µM
TGI (SK-MEL-5 melanoma): 22.4 µM

Cc1nc(N(C(C)C)C(C)C)c(C(C)C)o1
TGI (HL-60(TB) leukemia): > 100 µM
TGI (HT29 colon): > 100 µM
TGI (LOX IMVI melanoma): > 100 µM
TGI (MALME-3M melanoma): > 100 µM
TGI (MOLT-4 leukemia): > 100 µM
TGI (NCI-H226 lung): > 100 µM
TGI (NCI-H460 lung): > 100 µM
TGI (NCI/ADR-RES ovarian): > 100 µM
TGI (SK-MEL-5 melanoma): > 100 µM

O=C(NCCCCCCCN1CCCCCCC1)C(C1CCCCC1)C1CCCCC1
TGI (HL-60(TB) leukemia): 22.2 µM
TGI (HT29 colon): 11.7 µM
TGI (LOX IMVI melanoma): 26.2 µM
TGI (MALME-3M melanoma): 8.53 µM
TGI (MOLT-4 leukemia): 20.4 µM
TGI (NCI-H226 lung): 23.5 µM
TGI (NCI-H460 lung): 23.6 µM
TGI (NCI/ADR-RES ovarian): 25.1 µM
TGI (SK-MEL-5 melanoma): 5.51 µM

COCCOCOC(C)(C)[C@H](CCO)O[Si](c1ccccc1)(c1ccccc1)C(C)(C)C
TGI (HL-60(TB) leukemia): 9.05 µM
TGI (HT29 colon): 21.4 µM
TGI (KM20L2 colon): 24.4 µM
TGI (LOX IMVI melanoma): 23.3 µM
TGI (MALME-3M melanoma): 30.5 µM
TGI (MOLT-4 leukemia): 22.9 µM
TGI (NCI-H460 lung): 22.3 µM
TGI (SK-MEL-5 melanoma): 26.7 µM

CCC(=O)C(CCN1CCC(N2C(=O)C(CCC#N)c3ccccc32)CC1)(c1ccccc1)c1ccccc1 (stereo not given)
TGI (HL-60(TB) leukemia): 22.2 µM
TGI (HT29 colon): 12.9 µM
TGI (LOX IMVI melanoma): 27 µM
TGI (MALME-3M melanoma): 24.8 µM
TGI (MOLT-4 leukemia): 25 µM
TGI (NCI-H226 lung): 32.6 µM
TGI (NCI-H460 lung): 26.9 µM
TGI (NCI/ADR-RES ovarian): 25 µM
TGI (SK-MEL-5 melanoma): 22.1 µM

O=C1c2ccccc2C(=O)c2c1cc1c(c2[N+](=O)[O-])OCO1
GI50 (HL-60(TB) leukemia): 0.465 µM
TGI (HL-60(TB) leukemia): 8.94 µM
GI50 (HT29 colon): 4.24 µM
TGI (HT29 colon): 22 µM
GI50 (LOX IMVI melanoma): 1.43 µM
TGI (LOX IMVI melanoma): 4.92 µM
GI50 (MALME-3M melanoma): 2.81 µM
TGI (MALME-3M melanoma): 8.9 µM
GI50 (MOLT-4 leukemia): 0.794 µM
TGI (MOLT-4 leukemia): > 100 µM
GI50 (NCI-H226 lung): 2.06 µM
TGI (NCI-H226 lung): 7.16 µM
GI50 (NCI-H460 lung): 2.11 µM
TGI (NCI-H460 lung): 7.06 µM
GI50 (NCI/ADR-RES ovarian): 1.15 µM
TGI (NCI/ADR-RES ovarian): 8.87 µM
GI50 (SK-MEL-5 melanoma): 3.48 µM
TGI (SK-MEL-5 melanoma): 11.7 µM

O=C1CSC(c2ccccc2O)N1c1ccc(Oc2ccc(Cl)cc2)c(Cl)c1 (stereo not given)
TGI (HL-60(TB) leukemia): 51.2 µM
TGI (HT29 colon): 37.3 µM
TGI (LOX IMVI melanoma): 32.8 µM
TGI (MALME-3M melanoma): 30.2 µM
TGI (MOLT-4 leukemia): 81 µM
TGI (NCI-H226 lung): > 100 µM
TGI (NCI-H460 lung): 43.6 µM
TGI (NCI/ADR-RES ovarian): 48.4 µM
TGI (SK-MEL-5 melanoma): 33.8 µM

CS(=O)(=O)C1(Br)S(=O)(=O)OCCOS1(=O)=O
TGI (DMS 273 small cell lung): > 100 µM
TGI (HL-60(TB) leukemia): > 100 µM
TGI (HT29 colon): > 100 µM
TGI (KM20L2 colon): > 100 µM
TGI (LOX IMVI melanoma): > 100 µM
TGI (MALME-3M melanoma): > 100 µM
TGI (MOLT-4 leukemia): > 100 µM
TGI (NCI-H226 lung): > 100 µM
TGI (NCI-H460 lung): > 100 µM
TGI (SK-MEL-5 melanoma): > 100 µM

O=C(Nc1nc2ncn(CCO)c2c(=O)[nH]1)c1ccccc1
TGI (DMS 273 small cell lung): > 100 µM
TGI (HL-60(TB) leukemia): > 100 µM
TGI (HT29 colon): > 100 µM
TGI (KM20L2 colon): > 100 µM
TGI (LOX IMVI melanoma): > 100 µM
TGI (MALME-3M melanoma): > 100 µM
TGI (NCI-H226 lung): > 100 µM
TGI (NCI-H460 lung): > 100 µM
TGI (SK-MEL-5 melanoma): > 100 µM

CSc1nc2c3ccccc3ccn2c1C(=O)N/N=C/c1ccccc1
TGI (HL-60(TB) leukemia): > 100 µM
TGI (HT29 colon): > 100 µM
TGI (LOX IMVI melanoma): > 100 µM
TGI (MALME-3M melanoma): > 95.1 µM
TGI (MOLT-4 leukemia): > 100 µM
TGI (NCI-H226 lung): > 100 µM
TGI (NCI-H460 lung): > 73.7 µM
TGI (NCI/ADR-RES ovarian): > 71.9 µM
TGI (SK-MEL-5 melanoma): > 100 µM
